The values that follow come from PubChem BioAssay AID179 (DTP/NCI, 2004).

By EC50 is commonly meant the concentration needed to bring the measured effect to its halfway point. For orientation: IC50 means the concentration that inhibits the measured activity by half.

For this assay, the system named is CEM cells HIV-1 protection, formazan growth assay. The assay can be described thus: NCI AIDS Antiviral Assay. Conditions: for IC50: measured here: growth of uninfected CEM cells. Put shortly: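 Five concentrations of each compound were applied to infected and uninfected human CEM cells. Protection from HIV-1 was judged from growth measured with a soluble formazan assay.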

Activity calls are given as the source filed them.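 Rule for the calls: active = compounds giving half or more protection of infected cells from virus-caused growth loss, again on retest; inactive = the rest.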 Where a SMILES comes first, the peptide text is derived from it.

As to `CCOC(=O)[C@H]1Nc2ccc(Cl)cc2[C@H]2c3ccccc3O[C@H]21`, the EC50 is above 30.2 µM and the IC50 was above 30.2 µM.

`COC(=O)c1cc(C(=CC(=O)N[C@H]2CC[C@]3(C)C4CC[C@]5(C)[C@@H](C(C)CCCC(C)C)CC[C@H]5C4CC[C@H]3C2)c2cc(Cl)c(OC)c(C(=O)OC)c2)cc(Cl)c1OC` (stereo not given in full): the EC50 was above 100 µM and the IC50 is above 100 µM.

Turning to `COC(=O)C(=O)C(C(=O)C(=O)Nc1nc2ccc(C)cc2s1)c1nc2ccc([N+](=O)[O-])cc2[nH]c1=O` (stereo not given), the EC50 is above 132 µM and the IC50 was determined as 126 µM.

Take `CC(=O)OC1(C#N)CC2OC1C1N=NN(C(=O)OC(C)(C)C)C21` (stereo not given): the EC50 was above 155 µM and the IC50 was 14.8 µM.

Consider `Cc1ccccc1NC(=O)Cc1csc(N=Nc2c(O)[nH]c3ccccc23)n1`, for which the EC50 is above 200 µM and the IC50 is above 200 µM.

With `Cc1cn2c(n1)Nc1sc3c(c1C2)CCCC3`, the EC50 was above 200 µM and the IC50 was determined as 30.2 µM.

For `N/C(=N\N=C\c1cc(I)cc(I)c1O)NO`, the EC50 is above 200 µM and the IC50 was found to be 10.5 µM.

As to `C[CH2][Sn]([CH2]C)([O]C(=O)C(OC(C)=O)c1ccccc1)[O]C(=O)C(OC(C)=O)c1ccccc1` (stereo not given), the EC50 is above 229 µM and the IC50 amounted to 2.69 µM.

`O=C(OCCN1CCOCC1)C1C[C@@H](O)CN1C(=O)c1ccc2c(c1)OCO2` (stereo not given in full): the EC50 was above 200 µM and the IC50 was above 200 µM.

Turning to `NC(=O)c1ncn2c(=O)n(CCCl)nnc12`, the EC50 is above 1020 µM and the IC50 was 24.5 µM.

In the case of `CC(C)c1cccc(C(C)C)c1NC(=O)CCC(=O)NN`, the EC50 was above 324 µM and the IC50 was above 324 µM.

For `NC(=O)C(=O)CC(=O)c1ccccc1NC1=CC(=O)C(=O)c2ccccc21`, the EC50 is above 20 µM and the IC50 was above 20 µM.

As to `CCCCCCCCCCCCCCCC(=O)Nc1ccn(C2CCC(COP(=O)(O)O)O2)c(=O)n1` (stereo not given), the EC50 is 1.58 µM and the IC50 was determined as 50.1 µM.

As to `CC1(C)C2CCC1C(SC(=N)N)C2` (stereo not given), the EC50 is above 200 µM and the IC50 is 43.7 µM.

On to `CC1(C2COC(=O)C2)SCCCS1` (stereo not given), for which the EC50 was above 100 µM and the IC50 is 60.3 µM.

In the case of `CC1(c2ccc(Cl)cc2)OC(=O)c2c1ccc1ccccc21` (stereo not given), the outcome was inactive.

In the case of `CC(=O)O[C@]1(C)C(=O)OC2C1C(OC(=O)C=C(C)C)C[C@](C)(OC(C)=O)[C@H]1[C@H](O)C=C(C)[C@@H]21` (stereo not given in full), the EC50 is above 269 µM and the IC50 stood at 10 µM.

As for `CC(=O)NNc1nc(C)c(C(=O)/C=C/c2ccccc2Cl)s1`, the EC50 is above 77.6 µM and the IC50 was 58.9 µM.

As for `Cc1ccc(S(=O)(=O)c2ccc(C)cc2[N+](=O)[O-])c([N+](=O)[O-])c1`, the EC50 was above 40.7 µM and the IC50 is above 40.7 µM.

Take `O=C(/C=C/c1ccccc1)CCN1CCCC1`: the EC50 was above 200 µM and the IC50 turned out to be 8.13 µM.

For `NC(CC(O)(c1ccccc1)c1ccccc1)c1ccccc1S` (stereo not given), the EC50 was above 200 µM.

As to `Cc1n[nH]c(=O)n1C1CCCC1`, the EC50 is above 200 µM and the IC50 is above 200 µM.

For `COc1cc(OC)nc(-n2c(N)c(C(=O)O)c3ccc([N+](=O)[O-])cc3c2=O)n1`, the EC50 was above 200 µM and the IC50 worked out at 42.7 µM.

`CCS(=O)(=O)[C@@]1(C#N)CC[C@]1(C#N)S(=O)(=O)CC`: the EC50 is 646 µM and the IC50 was 871 µM.

Consider `C[C@@H]1Cc2c(-c3cc(-c4cc(-c5c(O)cc(O)c6c5C[C@@H](C)N[C@@H]6C)c5ccccc5c4O)c(O)c4ccccc34)c(O)cc(O)c2[C@@H](C)N1`, for which the EC50 is 115 µM and the IC50 was above 200 µM.

Take `NNC(=O)C(=O)N/N=C(\CCC(=O)Nc1ccc(Cl)cc1)Cc1nc2ccccc2s1`: the EC50 was above 77.6 µM and the IC50 was determined as 14.5 µM.

For `O=Nc1cc(S(=O)(=O)O)c2ccccc2c1O`, the EC50 was above 200 µM and the IC50 was above 200 µM.

With `CC(=O)/C=c1\[nH]/c(=C\C=C\c2ccccc2)c(=O)n1/C=C1\C(=O)Oc2ccccc2C1=O`, the EC50 was above 200 µM and the concentration for half-maximal inhibition (IC50) amounted to 166 µM.

Turning to `COc1ccc(C(O)c2ccc3c(c2)OCO3)cc1` (stereo not given), the EC50 is above 200 µM and the IC50 amounted to 162 µM.

As for `O=C1/C(=C\c2cccc(Oc3ccccc3)c2)S(=O)(=O)C(c2ccccc2)N1c1cccc(Cl)c1` (stereo not given), the EC50 is above 200 µM and the IC50 is 12.9 µM.

As to `CC1(C)COC(c2cccc(C(=O)c3ccccc3)c2)=N1`, the EC50 is above 200 µM and the IC50 stood at 57.5 µM.

In the case of `COc1ccc2c(c1)C1C(CO2)C(c2ccccc2)=NN1c1ccccc1` (stereo not given), the EC50 is above 20.4 µM and the IC50 is above 20.4 µM.

As for `C=c1c2ccccc2oc2nc3[nH]c(N)c(C#N)c(N)c3c(=N)c12`, the EC50 was above 200 µM and the IC50 came out at 7.24 µM.

Consider `CC(C)(C)C(=O)ON1N=NC2C3CC(OCc4ccccc4)(OCc4ccccc4)C(O3)C21` (stereo not given), for which the EC50 was above 15.8 µM and the IC50 is above 15.8 µM.

Turning to `N#CC(NCCc1ccccc1)c1ccccc1` (stereo not given), the outcome was inactive.

Consider `COc1nc2ncc([C@@H](O)[C@H](O)CO)nc2c(=O)n1C`, for which the EC50 was above 200 µM and the IC50 is above 200 µM.

For the compound `COc1cccc(OC)c1OC(=O)Nc1ccccc1F`, the EC50 is above 200 µM and the IC50 is above 200 µM.

As for `Cc1cn(C2COC(C)(CO)O2)c(=O)[nH]c1=O` (stereo not given), the EC50 was above 200 µM and the half-inhibitory concentration (IC50) is above 200 µM.

Regarding `O=C(N/N=C\c1ccncc1)c1ccncc1`, the EC50 was above 200 µM and the IC50 was above 200 µM.

As to `C[C@H]1[C@@H](c2ccccc2)C12C(=O)NC(=O)NC2=O`, the EC50 is above 200 µM and the IC50 turned out to be 105 µM.

As for `O=C1[C@H]2ON(c3ccccc3)C(c3ccccc3F)[C@H]2C(=O)N1c1ccc(Cc2ccc(N3C(=O)[C@@H]4ON(c5ccccc5)C(c5ccccc5F)[C@@H]4C3=O)cc2)cc1` (stereo not given in full), the EC50 is above 9.12 µM and the IC50 is above 9.12 µM.

Take `CN(N=O)C(N)=NC(=O)c1ccccc1`: the EC50 was above 200 µM and the IC50 came to 141 µM.

On to `CCOC(=O)CN(Cn1cncn1)Cn1cncn1`, for which the EC50 is above 200 µM and the IC50 was 28.8 µM.

On to `CCC(=O)c1c(NOC2OC(COC(C)=O)C(OC(C)=O)C(OC(C)=O)C2OC(C)=O)nc(OC)n(C)c1=O` (stereo not given), for which the EC50 is above 46.8 µM and the IC50 was above 46.8 µM.

Take `CN(NC(=O)/C(=C/c1ccc2c(c1)OCO2)NC(=O)c1ccccc1)c1ccnc2cc(Cl)ccc12`: the EC50 is above 200 µM and the IC50 was 10.5 µM.

In the case of `O=C1Nc2ccccc2/C1=C/c1cc(Cl)cc(Cl)c1O` (tested in a mixture with another compound), the EC50 was above 200 µM and the IC50 is 44.7 µM.

Turning to `O=C1CCC(c2ccccc2)(C2CCN(Cc3ccc(F)cc3)CC2)C(=O)N1` (stereo not given), the EC50 was above 200 µM and the IC50 was found to be 123 µM.

For the compound `COc1ccc(-c2c(C#N)c(NC(=S)NC(=O)c3ccccc3)nc3c2CCCC3)cc1OC`, the EC50 is above 200 µM and the concentration for half-maximal inhibition (IC50) was 115 µM.

As for `O=C(c1ccc(Cl)cc1)c1ccc(OCC(=O)N2CCN(c3ccccc3)CC2)cc1`, the EC50 is above 12 µM and the IC50 is above 12 µM.

On to `Cc1ccc(S(=O)(=O)Nn2c(-c3ccccc3)c(C#N)c(-c3ccc(N(C)C)cc3)c(C#N)c2=O)cc1`, for which the EC50 is above 100 µM and the IC50 was 35.5 µM.

Turning to `Clc1ccc(-n2cnn3c(-c4ccccc4)ncc23)cc1`, the EC50 is above 100 µM and the IC50 is above 100 µM.

Regarding `CC(C)(CO)CNc1nc(N)nc(Cl)c1/C=N/O`, the EC50 is above 200 µM and the IC50 is 5.5 µM.

Consider `CC(O)CCNc1nnc2c3ccccc3n(C)c2n1` (stereo not given), for which the EC50 is above 200 µM and the IC50 is above 200 µM.

Consider `O=[N+]([O-])c1ccc(-n2nnc(C3=NCCCN3)c2-c2ccc(Cl)cc2)cc1`, for which the EC50 was 1.38 µM and the IC50 was determined as 148 µM.

`COc1ccc(-c2cncc(-c3ccc(OC)c(OC)c3)c2)cc1OC`: the EC50 was above 20.4 µM and the IC50 was above 20.4 µM.

With `c1ccc(C2OCC(OC3CCCCO3)CO2)cc1` (stereo not given), the EC50 was above 200 µM and the IC50 is above 200 µM.

`COC(=O)/C=C/C=C/c1ccc2c(c1OC)C(=O)c1ccccc1C2=O`: the outcome was inactive.

For `COc1cc(/C=C/c2ccnc3ccccc23)cc(OC)c1OC`, the EC50 was above 200 µM and the IC50 was found to be 1.48 µM.

As to `CSc1ncnc2c1ncn2CCC#N`, the EC50 is above 200 µM and the IC50 is above 200 µM.

`COc1cc2c3cc1Oc1c(OC)c(OC)cc4c1C(Cc1ccc(cc1)Oc1cc(ccc1O)CC3N(C)CC2)N(C)CC4` (stereo not given): the EC50 is above 22.4 µM, the outcome was inactive and the IC50 was above 22.4 µM.

For the compound `[Ni+2].[O-]/C(=N\N=C/c1cccc(C(F)(F)F)c1)c1ccncc1.[O-]/C(=N\N=C\c1cccc(C(F)(F)F)c1)c1ccncc1`, the EC50 is above 100 µM and the IC50 was 15.8 µM.

Take `CO[C@@H]1C2C3c4ccccc4C(c4ccccc43)C2[C@H](OC)[C@H]2OC(c3ccccc3)O[C@H]21` (stereo not given in full): the EC50 was above 67.6 µM and the IC50 is above 67.6 µM.

`COC(=O)CC(C(C(=O)OCc1ccccc1)C(C)O)N1C(=O)OC(c2ccccc2)C1c1ccccc1` (stereo not given): the EC50 is above 251 µM and the IC50 is above 251 µM.

As to `COc1cccc(C2c3cc4c(cc3OC(N3CCCC3)C2c2ccccc2)OCO4)c1O` (stereo not given), the EC50 is above 200 µM and the IC50 is 3.16 µM.

As for `CNC(=O)CN(CC(=O)NC)C(=O)NC`, the EC50 was above 120 µM and the IC50 is above 120 µM.

Regarding `CCOC(=O)c1ccc(-n2c(SCC)nc3sc(C)c(C)c3c2=O)cc1`, the EC50 was above 200 µM and the concentration for half-maximal inhibition (IC50) was above 200 µM.

Consider `CCC(C)C(N)C(=O)NC(C(=O)NC(CO)C(=O)NC(C)C(=O)NC(CO)C(=O)NC(C(=O)NC(CCCCN)C(=O)NC(CCCCN)C(=O)NC(CO)C(=O)NC(Cc1ccccc1)C(=O)O)C(C)CC)C(C)CC` (stereo not given) (H-IISASIKKSF-OH; configuration not given here), for which the result was inactive.
